Test results published in ChEMBL document CHEMBL3885861, “Open TG-GATES”.

Species: Rattus norvegicus
Test: Open TG-GATES - Regimen: Daily Repeat
Format: toxicity, organism-based, Sprague-Dawley
Parameters: regimen Daily Repeat, gender Male, age 6 weeks
Conditions: in vivo, po, route gavage; for APTT / Bas / Eos / Fbg / Hb / Ht / Lym / MCH / MCHC / MCV / Mono / Neu / PT / Plat / RBC / Ret / WBC: tissue Blood; for KIDNEY_L / KIDNEY_R / KIDNEY_TOTAL: tissue Kidney; for LIVER: tissue Liver; for A/G / ALP / ALT / AST / BUN / CRE / Ca / Cl / DBIL / GLC / IP / K / LDH / Na / PL / RALB / TBIL / TC / TG / TP / gamma-GTP: tissue Plasma
[1] = 0 mg/kg, 72 h, dose level Control, time 3 day
[2] = 0 mg/kg, […], dose level Control, time 7 day
[3] = 0 mg/kg, […], dose level Control, time 14 day
[4] = 0 mg/kg, […], dose level Control, time 28 day
[5] = 1 mg/kg, 72 h, dose level Middle, time 3 day

CN1C(C(=O)Nc2ccccn2)=C(O)c2sc(Cl)cc2S1(=O)=O [LORNOXICAM] was tested, and the TERMINAL_BW [1] was 242.5 g, the APTT [1] was 20.7 s and the Bas [1] was 0.4%. It also gave an Eos [1] of 1%, a Fbg [1] of 223.4 mg/dL and a Hb [1] of 12.9 g/dL. The Ht [1] was 38.6%, the Lym [1] was 79% and the MCH [1] was 21 pg. It also gave an MCHC [1] of 33.5%, an MCV [1] of 62.6 fL and a Mono [1] of 2.6%. For the same molecule, the Neu [1] was 16.2%, the PT [1] was 11.7 s and the Plat [1] was 126.1 x10_4/uL. The RBC [1] was 617 x10_4/ul, the Ret [1] was 6.1% and the WBC [1] was 110.2 x10_2/uL. It also gave a KIDNEY_L [1] of 1 g, a KIDNEY_R [1] of 1 g and a KIDNEY_TOTAL [1] of 2.1 g. It also gave an LIVER [1] of 10.9 g, an A/G [1] of 1.7 and an ALP [1] of 907.8 IU/L. The ALT [1] was 46.2 IU/L, the AST [1] was 91.2 IU/L and the BUN [1] was 14.4 mg/dL. The CRE [1] was 0.4 mg/dL, the Ca [1] was 10.6 mg/dL and the Cl [1] was 104.2 meq/L. For the same molecule, the DBIL [1] was 0.094 mg/dL, the GLC [1] was 222.6 mg/dL and the IP [1] was 6.8 mg/dL. It also gave a K [1] of 4.1 meq/L, an LDH [1] of 253.8 IU/L and a Na [1] of 141.6 meq/L. The PL [1] was 145.8 mg/dL, the RALB [1] was 3.5 g/dL and the TBIL [1] was 0.1 mg/dL. For the same molecule, the TC [1] was 74.2 mg/dL, the TG [1] was 97.6 mg/dL and the TP [1] was 5.6 g/dL. It also gave a gamma-GTP [1] of 1.2 IU/L, a TERMINAL_BW [2] of 279.8 g and a TERMINAL_BW [3] of 335.2 g. It also gave a TERMINAL_BW [4] of 380.8 g, an APTT [2] of 20.1 s and a Bas [2] of 0.6%. The Eos [2] was 0.8%, the Fbg [2] was 230.2 mg/dL and the Hb [2] was 13.8 g/dL. The Ht [2] was 40.8%, the Lym [2] was 82% and the MCH [2] was 20.7 pg. It also gave an MCHC [2] of 33.7%, an MCV [2] of 61.4 fL and a Mono [2] of 2.2%. The Neu [2] was 13.8%, the PT [2] was 11.4 s and the Plat [2] was 132.2 x10_4/uL. For the same molecule, the RBC [2] was 664.6 x10_4/ul, the Ret [2] was 4.8% and the WBC [2] was 106.9 x10_2/uL. For the same molecule, the APTT [3] was 21.1 s, the Bas [3] was 0.6% and the Eos [3] was 1%. For the same molecule, the Fbg [3] was 221.2 mg/dL, the Hb [3] was 14 g/dL and the Ht [3] was 41%. The Lym [3] was 82%, the MCH [3] was 20.3 pg and the MCHC [3] was 34%. The MCV [3] was 59.6 fL, the Mono [3] was 2.4% and the Neu [3] was 14.2%. It also gave a PT [3] of 11.5 s, a Plat [3] of 121.8 x10_4/uL and an RBC [3] of 687.4 x10_4/ul. For the same molecule, the Ret [3] was 3.7%, the WBC [3] was 100 x10_2/uL and the APTT [4] was 21.4 s. For the same molecule, the Bas [4] was 0.6%, the Eos [4] was 1.2% and the Fbg [4] was 223.4 mg/dL. It also gave a Hb [4] of 15.8 g/dL, a Ht [4] of 45.2% and a Lym [4] of 81.6%. The MCH [4] was 20.1 pg, the MCHC [4] was 35% and the MCV [4] was 57.6 fL. It also gave a Mono [4] of 1.8%, a Neu [4] of 14.2% and a PT [4] of 11.7 s. It also gave a Plat [4] of 108.5 x10_4/uL, an RBC [4] of 784.8 x10_4/ul and a Ret [4] of 2%. The WBC [4] was 101.8 x10_2/uL, the KIDNEY_L [2] was 1.2 g and the KIDNEY_R [2] was 1.2 g. The KIDNEY_TOTAL [2] was 2.4 g, the KIDNEY_L [3] was 1.3 g and the KIDNEY_R [3] was 1.3 g. It also gave a KIDNEY_TOTAL [3] of 2.6 g, a KIDNEY_L [4] of 1.4 g and a KIDNEY_R [4] of 1.3 g. The KIDNEY_TOTAL [4] was 2.7 g, the LIVER [2] was 13 g and the LIVER [3] was 14.5 g. It also gave an LIVER [4] of 14.4 g, an A/G [2] of 1.7 and an ALP [2] of 1004.8 IU/L. It also gave an ALT [2] of 33.2 IU/L, an AST [2] of 68.4 IU/L and a BUN [2] of 14 mg/dL. It also gave a CRE [2] of 0.4 mg/dL, a Ca [2] of 10.8 mg/dL and a Cl [2] of 102.8 meq/L. For the same molecule, the DBIL [2] was 0.1 mg/dL, the GLC [2] was 206 mg/dL and the IP [2] was 6.7 mg/dL. The K [2] was 4 meq/L, the LDH [2] was 206 IU/L and the Na [2] was 140.4 meq/L. It also gave a PL [2] of 150 mg/dL, an RALB [2] of 3.6 g/dL and a TBIL [2] of 0.2 mg/dL. For the same molecule, the TC [2] was 70.8 mg/dL, the TG [2] was 132.8 mg/dL and the TP [2] was 5.7 g/dL. The gamma-GTP [2] was 1.2 IU/L, the A/G [3] was 1.5 and the ALP [3] was 781.8 IU/L. It also gave an ALT [3] of 35.6 IU/L, an AST [3] of 66.6 IU/L and a BUN [3] of 15.4 mg/dL. It also gave a CRE [3] of 0.4 mg/dL, a Ca [3] of 10.7 mg/dL and a Cl [3] of 104.4 meq/L. For the same molecule, the DBIL [3] was 0.096 mg/dL, the GLC [3] was 195 mg/dL and the IP [3] was 6.9 mg/dL. The K [3] was 4 meq/L, the LDH [3] was 196.4 IU/L and the Na [3] was 141.2 meq/L. For the same molecule, the PL [3] was 148.6 mg/dL, the RALB [3] was 3.5 g/dL and the TBIL [3] was 0.2 mg/dL. The TC [3] was 72.8 mg/dL, the TG [3] was 118.4 mg/dL and the TP [3] was 5.8 g/dL. The gamma-GTP [3] was 0.8 IU/L, the A/G [4] was 1.4 and the ALP [4] was 637.4 IU/L. It also gave an ALT [4] of 33.6 IU/L, an AST [4] of 67.4 IU/L and a BUN [4] of 15.8 mg/dL. The CRE [4] was 0.5 mg/dL, the Ca [4] was 10.1 mg/dL and the Cl [4] was 103.8 meq/L. It also gave a DBIL [4] of 0.1 mg/dL, a GLC [4] of 198.2 mg/dL and an IP [4] of 6.1 mg/dL. The K [4] was 4 meq/L, the LDH [4] was 173.2 IU/L and the Na [4] was 141.6 meq/L. For the same molecule, the PL [4] was 142.8 mg/dL, the RALB [4] was 3.6 g/dL and the TBIL [4] was 0.2 mg/dL. It also gave a TC [4] of 67.6 mg/dL, a TG [4] of 148.2 mg/dL and a TP [4] of 6.1 g/dL. It also gave a gamma-GTP [4] of 1.2 IU/L, a TERMINAL_BW [5] of 239.1 g and an APTT [5] of 18.8 s. It also gave a Bas [5] of 0.8%, an Eos [5] of 0.8% and a Fbg [5] of 276 mg/dL. The Hb [5] was 11.8 g/dL, the Ht [5] was 35.5% and the Lym [5] was 69.8%. For the same molecule, the MCH [5] was 21 pg, the MCHC [5] was 33.2% and the MCV [5] was 63.4 fL. It also gave a Mono [5] of 3.8%, a Neu [5] of 24.4% and a PT [5] of 11.3 s. It also gave a Plat [5] of 122.1 x10_4/uL, an RBC [5] of 561.4 x10_4/ul and a Ret [5] of 6.3%. The WBC [5] was 144.7 x10_2/uL, the KIDNEY_L [5] was 1.1 g and the KIDNEY_R [5] was 1.1 g. The KIDNEY_TOTAL [5] was 2.2 g, the LIVER [5] was 11.7 g and the A/G [5] was 1.4. It also gave an ALP [5] of 872.4 IU/L, an ALT [5] of 37.2 IU/L and an AST [5] of 65 IU/L. The BUN [5] was 12 mg/dL, the CRE [5] was 0.4 mg/dL and the Ca [5] was 10.4 mg/dL. For the same molecule, the Cl [5] was 104.4 meq/L, the DBIL [5] was 0.098 mg/dL and the GLC [5] was 220.2 mg/dL. It also gave an IP [5] of 7.4 mg/dL, a K [5] of 4.5 meq/L and an LDH [5] of 198.6 IU/L. For the same molecule, the Na [5] was 140.8 meq/L, the PL [5] was 150 mg/dL and the RALB [5] was 3 g/dL. For the same molecule, the TBIL [5] was 0.2 mg/dL, the TC [5] was 74 mg/dL and the TG [5] was 154 mg/dL. It also gave a TP [5] of 5.2 g/dL, a gamma-GTP [5] of 1.6 IU/L and a TERMINAL_BW (1 mg/kg, […], dose level Middle, time 7 day) of 275.8 g.
